Assay results as given in patent US11033526B2 (priority 2015, dated 2021).
Where two headings read alike, the source gives them in different places. One block for each compound: values may come before it.

Experiments:
CMVMJD135 mice [1] = details: cited from earlier work
[2] = test system: AT3q130 animals (mutant ATXN3); assay: C. elegans assay for motility defects in AT3q130 animals; type: in vivo; details: for mutant ATXN3-mediated neuronal dysfunction (locomotion defects): liquid culture, four day old animals
Experimental: C. elegans assays for motility defects and aggregation. Animals (N2, AT3 WT or AT3q130) were grown in liquid culture in a 96-well plate format, with the chemical compounds, as described above. Four day old animals were transferred from the 96-well plates onto an unseeded NGM plate (equilibrated at 20° C.). Plates were allowed to dry for 1 hour before starting the assays. Motility assays were performed at 20° C. as previously described. Motor behaviour assays were run in triplicates or quadruplicates (n=3 or 4), with a total of at least 150 animals tested per genotype and/or compound. For confocal dynamic imaging and quantification of ATXN3 aggregation, live animals were immobilized with 3 mM levamisole (Sigma, USA) and mounted on a 3% agarose pad. All images were captured on an Olympus FV1000 (Japan) or Zeiss LSM 510 (Germany) confocal microscopes, under a 60× oil (NA=1.35) or 63× water (NA=1.0) objectives. Z-series imaging was acquired for all vehicle- and compound-treated animals, using a 515/514 nm laser excitation line for YFP fusion proteins. The pinhole was adjusted to 1.0 Airy unit of optical slice, and a scan was acquired every˜0.5 μm along the Z-axis. For quantification of aggregates three parameters were measured: area of aggregates/total area; number of aggregates/total area and number of aggregates. Values shown are the mean (normalized to vehicle treated control) of eight or more animals per group, unless noted otherwise.

CMVMJD135 mice [3] = assay: Behavioural assessment of CMVMJD135 mice under chronic oral treatment; type: in vivo, mouse
Experimental: Transgenic mouse model and drug administration. CMVMJD135 mice were generated as described previously. DNA extraction, animal genotyping and CAG repeat size analyses were performed as previously described. The mean repeat size (±s.d.) for all mice used was 130±2. […] Only male mice were used in this study. […] Treatment was initiated at five weeks of age, one week before the expected onset of the first neurological symptoms. The trial was ended at 34 weeks of age, according to the humane endpoints established for the non-treated CMVMJD135 mice. All animal procedures were conducted in accordance with European regulations (European Union Directive 86/609/EEC). Animal facilities and the people directly involved in animal experiments (ATC, SE, ASF, SDS) were certified by the Portuguese regulatory entity-[…]. All of the protocols performed were approved by the Animal Ethics Committee of the Life and Health Sciences Research Institute, University of Minho. Behavioural assessment. […] All behavioural tests started in a pre-symptomatic stage (4 weeks) and were conducted until 30 or 34 weeks of age (FIG. 5a). […] The dragging of the paws and the stride length were evaluated with footprinting analysis. Motor behaviour was further assessed using the balance beam walk test (12 mm square and 17 mm round beams) and the motor swimming test. […]

WT mice = assay: Body weight and motor behaviour of treated WT mice; type: in vivo, mouse
Experimental: Transgenic mouse model and drug administration. CMVMJD135 mice were generated as described previously. DNA extraction, animal genotyping and CAG repeat size analyses were performed as previously described. The mean repeat size (±s.d.) for all mice used was 130±2. […] Only male mice were used in this study. […] Treatment was initiated at five weeks of age, one week before the expected onset of the first neurological symptoms. The trial was ended at 34 weeks of age, according to the humane endpoints established for the non-treated CMVMJD135 mice. All animal procedures were conducted in accordance with European regulations (European Union Directive 86/609/EEC). Animal facilities and the people directly involved in animal experiments (ATC, SE, ASF, SDS) were certified by the Portuguese regulatory entity-[…]. All of the protocols performed were approved by the Animal Ethics Committee of the Life and Health Sciences Research Institute, University of Minho. Behavioural assessment. […] All behavioural tests started in a pre-symptomatic stage (4 weeks) and were conducted until 30 or 34 weeks of age (FIG. 5a). Neurological tests and general health assessment were performed using the SHIRPA protocol, enriched with the hanging wire test. The dragging of the paws and the stride length were evaluated with footprinting analysis. Motor behaviour was further assessed using the balance beam walk test (12 mm square and 17 mm round beams) and the motor swimming test. All behavioural tests were performed as previously described (Silva-Fernandes, A. et al. Chronic Treatment with 17-DMAG Improves Balance and Coordination in A New Mouse Model of Machado-Joseph Disease. Neurotherapeutics (2014). Body weight was also registered for each evaluation time point.

Structure (SMILES): CO[C@H]1/C=C\C=C(/C)C(=O)NC2=CC(=O)C(NCCN(C)C)=C(C[C@@H](C)C[C@H](OC)[C@H](O)[C@@H](C)/C=C(\C)[C@@H]1OC(N)=O)C2=O [17-DMAG]
delay of manifestation of motor swimming defects (CMVMJD135 mice [1]; CMVMJD135 mice, previous findings (Silva-Fernandes 2014)): eight
percentage of effect in motor swimming test (CMVMJD135 mice [1]; at 30 weeks, CMVMJD135, previous findings (Silva-Fernandes 2014)): 33%

Structure (SMILES): O=C1CC2(CCCC2)CC(=O)N1CCCCN1CCN(c2ncccn2)CC1 [buspirone]
mutant ATXN3-mediated neuronal dysfunction (locomotion defects) [2]: ameliorated

EC50 ([2]; Caenorhabditis elegans, dose-response profile, read-out: half-maximal effective concentration (EC50), locomotion defects): 45 µM
Structure (SMILES): CN(C)CCCC1(c2ccc(F)cc2)OCc2cc(C#N)ccc21 (stereo not drawn) [citalopram]
delay of manifestation of motor swimming defects (CMVMJD135 mice [3]; CMVMJD135 mice): at least 20 weeks
percentage of effect in motor swimming test (CMVMJD135 mice [3]; at 30 weeks, CMVMJD135): 79%
behaviour of treated WT mice versus untreated littermates (WT mice): behaved similarly
beam walk test, WT mice (WT mice; 8 mg/kg): No differences
body weight of WT mice (WT mice; 8 mg/kg): significant increase
motor swimming test, WT mice (WT mice; 8 mg/kg): No differences
body weight of WT mice (WT mice; 13 mg/kg): significant increase

Structure (SMILES): CN1C[C@H](C(=O)N[C@]2(C)O[C@@]3(O)[C@@H]4CCCN4C(=O)[C@H](Cc4ccccc4)N3C2=O)C[C@@H]2c3cccc4[nH]cc(c34)C[C@H]21 [dihydroergotamine]
mutant ATXN3-mediated neuronal dysfunction (locomotion defects) [2]: ameliorated

Structure (SMILES): CN(C)CCC[C@@]1(c2ccc(F)cc2)OCc2cc(C#N)ccc21 [escitalopram]
mutant ATXN3-mediated neuronal dysfunction (locomotion defects) [2]: beneficial effects

Structure (SMILES): CN1C[C@H](CO)C=C2c3cccc4[nH]cc(c34)C[C@H]21 [lysergol]
mutant ATXN3-mediated neuronal dysfunction (locomotion defects) [2]: ameliorated

Structure (SMILES): CC(C)NCC(O)COc1cccc2[nH]ccc12 (stereo not drawn) [pindolol]
mutant ATXN3-mediated neuronal dysfunction (locomotion defects) [2]: ameliorated
